Non-standard residues stand in square brackets, D forms with d. No end group written: not given here. pGlu = O=C1CC[C@@H](C(=O)O)N1
Assays:
[1] = system: embryonal brain cells; test: Growth-stimulating action on embryonal brain cells; format: cell-based; conditions: mammals
[2] = Blood pressure effect upon intraventricular administration; format: in vivo; conditions: mammals
[3] = system: Hydra; test: Mitogen action on cell division in Hydra; format: in vivo
[4] = system: Hydra; test: Head-specific determination in Hydra (interstitial parent cell determined to the nerve cell); format: in vivo

[pGlu]PPGGSKVILF [peptide of the invention]
action on growth of embryonal brain cells [1]: growth-stimulating action | effect on blood pressure [2]: hypertensive (pressor) effect | mitogen action, cell division of all types of cells [3]: acts as a mitogen | concentration at which the effect occurs (mitogen) ([3]; order of magnitude): ~10^-10 M | head-specific determination [4]: responsible for head-specific determination | concentration at which the effect occurs (head-specific determination) ([4]; order of magnitude): ~10^-10 M

Reference: US4457917A, “Peptide, process for its preparation and pharmaceutical composition containing same” (Max-Planck-Gesellschaft zur Foerderung der Wissenschaften …, priority 1981, dated 1984)
